# Test results published in US20220184008A1, “MODULATORS OF INTRACELLULAR CHLORIDE CONCENTRATION” (FONDAZIONE ISTITUTO ITALIANO DI TECNOLOGIA, priority 2019, published 2022).
# What was measured:
# NKCC2 = target: T1, NKCC2 (Homo sapiens, UniProt Q13621); assay: Thallium-based assay in NKCC2-transfected HEK293 cells; format: cell-based
# T1 construct: expressed in transfected cells; host or cells: HEK293
# T1 sequence (Q13621 1-1099): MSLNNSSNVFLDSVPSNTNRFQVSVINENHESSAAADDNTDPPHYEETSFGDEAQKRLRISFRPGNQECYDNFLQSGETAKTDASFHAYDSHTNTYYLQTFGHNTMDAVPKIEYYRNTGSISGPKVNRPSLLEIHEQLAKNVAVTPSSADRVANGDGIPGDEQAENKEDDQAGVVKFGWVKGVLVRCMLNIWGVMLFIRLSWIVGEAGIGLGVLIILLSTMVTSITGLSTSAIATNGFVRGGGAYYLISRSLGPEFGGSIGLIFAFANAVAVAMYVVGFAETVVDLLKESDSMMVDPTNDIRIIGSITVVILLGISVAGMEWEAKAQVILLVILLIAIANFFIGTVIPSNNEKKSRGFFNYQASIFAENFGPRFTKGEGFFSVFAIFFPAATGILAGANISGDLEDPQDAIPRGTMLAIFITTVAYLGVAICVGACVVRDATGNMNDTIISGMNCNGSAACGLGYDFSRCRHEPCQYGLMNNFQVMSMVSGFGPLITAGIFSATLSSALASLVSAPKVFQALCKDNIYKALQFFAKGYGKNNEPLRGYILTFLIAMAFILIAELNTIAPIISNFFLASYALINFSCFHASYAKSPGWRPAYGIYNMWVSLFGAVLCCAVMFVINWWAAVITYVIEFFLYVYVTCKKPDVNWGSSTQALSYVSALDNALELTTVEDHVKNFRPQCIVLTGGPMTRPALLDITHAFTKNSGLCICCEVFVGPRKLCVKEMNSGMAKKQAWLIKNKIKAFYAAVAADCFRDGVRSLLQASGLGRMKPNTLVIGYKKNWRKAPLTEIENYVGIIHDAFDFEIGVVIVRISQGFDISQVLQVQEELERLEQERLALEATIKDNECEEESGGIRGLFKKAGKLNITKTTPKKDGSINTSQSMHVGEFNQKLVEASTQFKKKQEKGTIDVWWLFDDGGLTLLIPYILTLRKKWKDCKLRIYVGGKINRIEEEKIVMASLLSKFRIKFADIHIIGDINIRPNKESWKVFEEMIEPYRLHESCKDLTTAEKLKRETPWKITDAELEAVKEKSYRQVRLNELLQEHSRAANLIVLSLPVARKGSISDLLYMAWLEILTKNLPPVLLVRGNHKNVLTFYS
# Source text: The Thallium-based assay is a standard assay used to measure activity of potassium transporters, like NKCC2 which is a sodium potassium and chloride co-transporter. The assay consists on the monitoring of the cells upon the application of thallium (which mimic K^+) and consequently NaCl, which entering into cells by NKCC2, activated by the presence of the chloride ions, binds the fluorescent dye, thus determining a fluorescence increase. This assay involves parallel testing in 96 wells for a quick and easy drug screening. In detail, kidney epithelial cells (HEK293) were transfected with NKCC2 transporters, or a mock construct (control). After two days, the cells were loaded with a thallium-sensitive fluorescent dye in a Cl-free medium. After 1 hour of incubation, the inhibitory activity of bumetanide and furosemide (as positive controls) and the new compounds by monitoring fluorescence upon application of thallium (to mimic K) and subsequently NaCl were tested. When entering cells by NKCC2 (activated by the presence of Cl), thallium binds the fluorescent dye and increases fluorescence. […] A decreased fluorescence in the mock-transfected cells treated with bumetanide and furosemide was observed. […] This latter result was used to normalize the fluorescence measurements obtained with the assay. In particular, the ΔF/F0 value of the mock-transfected cells (both control and treated) was subtracted from the respective ΔF/F0 value of the cells transfected with the Cl transporters. With this assay, the novel chemical entities were tested for their ability to block NKCC2 (Results in Table 2).
# The arrow indicates the addition of thallium (final concentration 2 mM) and NaCl stimulus (135 mM) used to initiate the flux assay. b) Quantification of the effect of bumetanide, furosemide and 3 example compounds (3.8, 3.13, 3.17) in the thallium-based assay on NKCC2-transfected HEK293 cells. Data represents mean±sem from 5 independent experiments, and they are represented as % of the controls. *P<0.05, **P<0.01, ***P<0.001 Kruskal-Wallis Anova (Dunn's Post hoc Test); ###P<0.001 two-tailed unpaired Student t-test.
# NKCC1 = assay: Calcium kinetic assay in primary cultures of immature hippocampal neurons; format: cell-based; details: for NKCC1 Inhibition % 10 μM Neurons Calcium kinetic assay: immature neurons 3 DIV
# [1] = 10 μM, NKCC2-transfected HEK293, Table 2
Compound,inhibition at 10 µM (NKCC2; [1]) [%],NKCC1/NKCC2 selectivity (NKCC2; among compounds of the invention),NKCC1 Inhibition % 10 μM Neurons Calcium kinetic assay (NKCC1; Table 1) [%],NKCC1 Inhibition % 10 μM Neurons Calcium kinetic assay (NKCC1; Table 2) [%],NKCC2 Inhibition % 10 μM Thallium Assay (NKCC2; [1]) [%],"fluorescence increase upon GABA application compared with vehicle (DMSO)-treated controls (NKCC1; GABA 100 μM, normalized to KCl)"
"CCCCNc1cc(Cl)c(C(=O)O)cc1S(N)(=O)=O [Compound 2.2, 4-(butylamino)-2-chloro-5-sulfamoyl-benzoic acid]",0,–,2,2,–,–
Furosemide [reference compound],–,–,36,36,0,significantly reduced
"CCCCCCNc1ccc(C(=O)O)cc1S(N)(=O)=O [Compound 2.7, 4-(hexylamino)-3-sulfamoyl-benzoic acid]",0,–,10,10,–,–

# Second part, led by results:
inhibition at 10 µM (NKCC2; [1]) [%],NKCC1/NKCC2 selectivity (NKCC2; among compounds of the invention),Compound,NKCC1 Inhibition % 10 μM Neurons Calcium kinetic assay (NKCC1; Table 1) [%],NKCC1 Inhibition % 10 μM Neurons Calcium kinetic assay (NKCC1; Table 2) [%],NKCC2 Inhibition % 10 μM Thallium Assay (NKCC2; [1]) [%],"fluorescence increase upon GABA application compared with vehicle (DMSO)-treated controls (NKCC1; GABA 100 μM, normalized to KCl)"
0,highest,"CN(C)S(=O)(=O)c1cc(C(=O)O)ccc1NCCCCCCCC(F)(F)F [Compound 3.17, 3-(dimethylsulfamoyl)-4-(8,8,8-trifluorooctylamino) benzoic acid]",46,46,–,–
22,–,"CCCCNc1ccc(C(=O)O)cc1S(=O)(=O)NC [Compound 3.6, 4-(butylamino)-3-(methylsulfamoyl)benzoic acid]",6,6,–,–
0,–,"CN(C)S(=O)(=O)c1cc(C(=O)O)ccc1NCCC(C)(C)C [Compound 3.14, 4-(3,3-dimethylbutylamino)-3-(dimethylsulfamoyl)benzoic acid]",11,11,–,–
12,–,"CNS(=O)(=O)c1cc(C(=O)O)ccc1NCCC(C)(C)C [Compound 3.9, 4-(3,3-dimethylbutylamino)-3-(methylsulfamoyl)benzoic acid]",14,14,–,–
